Results on one molecule are retold here after US20170304223A1, “METHOD OF TREATING PROSTATE CANCER USING A PKC INHIBITOR” (priority 2016, published 2017).

Experiment [1] relates to PC-3 cells. Briefly: Cell proliferation assay / cell counting, PC-3 cells. Type of experiment: cell-based, human. As for the experimental part: (§1) RWPE epithelial cells and DU-145 human prostate carcinoma cells were purchased from American Type Culture Collection (ATCC). PC-3 cells were acquired from Moffit Cancer center. The cells were grown as a monolayer in a T25 tissue culture flask with 5 mL of growth medium and maintained in a 37 C incubator with 5% CO2. The E-MEM and F-12 growth media were obtained from ATCC. The medium was supplemented with 10% fetal bovine serum (FBS) and a mix of the antibiotics Penicillin (10,000 IU) and Streptomycin (10,000 μg/ml) in a 100× concentration which was purchased from Corning.
(§2) RWPE, DU 145 and PC-3 cells were cultured in a T25 cell culture flasks. 20,000 cells were seeded into each. […] The treatment was repeated over the course of 72 hours and samples were taken at 24 hour intervals.
(§3) RWPE, DU 145, and PC-3 cells were cultured in a T25 cell culture flasks. At assigned intervals the cells were trypsonized and put into a 1.5 mL microcentrifuge tube. Cells were inverted gently to keep the solution homogeneous and then the Cell Scepter by Millipore was used to measure cell numbers.

The subject of experiment [2] is DU-145 cells. Description: Cell proliferation assay / cell counting, DU-145 cells. It counts as cell-based, human. As for the experimental part: as §1, §2, §3
In experiment [3] the test system is Survivin. Briefly: Apoptotic marker Survivin by Western blot. It counts as cell-based, human. For orientation: In western blotting, separated proteins are transferred to a membrane and probed.
The target in experiment [4] is T1, PKC-τ (Homo sapiens, UniProt P41743).
T1 construct: endogenous in cells; host or cells: DU-145
T1 sequence (P41743 1-596): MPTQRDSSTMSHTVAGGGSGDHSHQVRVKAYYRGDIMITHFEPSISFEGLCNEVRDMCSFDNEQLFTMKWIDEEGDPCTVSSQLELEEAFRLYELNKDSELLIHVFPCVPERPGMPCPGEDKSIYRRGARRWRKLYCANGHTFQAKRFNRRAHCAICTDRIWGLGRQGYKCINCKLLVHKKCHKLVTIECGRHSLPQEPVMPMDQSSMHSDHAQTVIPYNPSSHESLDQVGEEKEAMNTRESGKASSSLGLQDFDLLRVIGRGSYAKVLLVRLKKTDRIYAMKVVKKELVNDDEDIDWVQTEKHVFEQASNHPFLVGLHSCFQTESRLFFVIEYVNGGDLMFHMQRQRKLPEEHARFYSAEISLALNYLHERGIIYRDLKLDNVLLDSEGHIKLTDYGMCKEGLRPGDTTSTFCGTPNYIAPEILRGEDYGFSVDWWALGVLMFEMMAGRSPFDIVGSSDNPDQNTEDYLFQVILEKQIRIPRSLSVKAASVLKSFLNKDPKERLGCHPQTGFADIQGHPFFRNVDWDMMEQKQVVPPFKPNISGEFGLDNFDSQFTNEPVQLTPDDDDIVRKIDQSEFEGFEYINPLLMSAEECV
Briefly: PKC-iota levels in prostate cells by Western blot after treatment. Type of experiment: cell-based. The following applies: 72 hours after treatment. The procedure:
Protein was harvested from cultured cells using Lysis Buffer purchased from Cell Signaling. Protein content was measured according to the Bradford method. Tissue extracts containing equal amounts of protein in each lane were run on SDS-PAGE gels. The tissue lysates (50 μg) were Western blotted for PKC-τ (10 μg, 1:2500 dilution): and PKC-ζ (5 μg, 1:4000 dilution) and β-actin (10 μg, 1:3000 dilution).
(§4) Western blots were developed on the Protein Simple Flour Chem M. Accompanied by the Alpha view software for analysis.
ICA-1 was used as a PKC-iota inhibitor. […] The cells were counted before and after the treatments and a statistical analysis was performed. Following cell counting, the cells were lysed and levels of PKC-iota and PKC-zeta were measured by Western blotting and immunoprecipitation.

Experiment [5] has as its system Cytochrome C. Briefly: Apoptotic marker Cytochrome C by Western blot. It counts as cell-based, human.
Experiment [6] relates to NF-kB. Briefly: NF-kB translocation after TNF-α exposure (cell subfractionation). It counts as cell-based, human. Particulars: DU-145 and PC-3 cells (cell line not specified), 10 μM, vs untreated control. As for the experimental part: 20,000 cells were seeded into each.
as §4

Experiment [7] deals with RWPE cells. Description: Cell proliferation assay / cell counting, RWPE cells. It counts as cell-based, human. The following applies: 10 μM, non-malignant cells (RWPE). As for the experimental part: as §1, §2, §3
Setting [8] is: DU-145 cells, 72 hours of treatment.
[9] abbreviates: RWPE cells, 72 hours of treatment.

For `NC(=O)c1ncn([C@H]2C[C@@H](COP(=O)(O)O)[C@H](O)[C@@H]2O)c1N` [ICA-1], the “average decline of cell population” value in experiment [1] is given as 18%. The “decrease in cell population (dose-response curve)” value was “statistically significant decrease in population” in experiment [2] (10 μM, malignant cells (DU-145)) and “not having a significant decrease” in experiment [7]. Moreover, in experiment [2] (DU-145 cells), the “reduction in cell growth compared to untreated cells” value is on record as 19%. For the same molecule, the “reduction of Survivin (in words)” value in experiment [3] (setting [8]) is on record as “reduction of Survivin by half”. Further, the results for the “decrease in Survivin” value in experiment [3] (PC-3 cells) and in experiment [3] (setting [9]) were 40% and 10%, respectively. Besides, the “average decrease in PKC-τ” value in experiment [4] (DU-145 cells) is 46%. Moreover, the “decrease in PKC-τ” value in experiment [4] (PC-3 cells) worked out at 40%. In addition, the “increase in Cytochrome C” value is on record as about 3 fold in experiment [5] (setting [8]) and 2 fold in experiment [5] (PC-3 cells). For the same molecule, the “increase of Cytochrome C” value in experiment [5] (setting [9]) is listed as 8%. Besides, in experiment [6], the “decrease of nucleic NFkB” value came to 5 fold.
